Data on twelve molecules can be found in paper PMC8547461, “An Intracellular Sensing and Signal Transduction System That Regulates the Metabolism of Polycyclic Aromatic Hydrocarbons in Bacteria” (mSystems, 2021).

Where “and” joins values, the source holds several entries; their conditions need not be identical. Equal values may be shown once. Read-outs that look alike come from different tables or passages of the source.

Data set [1] addresses DPR-1. The data set is described as follows: SPR (Biacore T200) with DPR-1, DPR-2 or their quadruple mutants immobilized on CM5 chips and cyclic nucleotides injected in 20 mM MOPS pH 8.0, 300 mM NaCl, 0.005% P20, 0.1 mg/ml BSA at 30 ul/min; 20 °C in results, 25 °C in methods; 1:1 binding fit (legend: steady-state affinity model). Conditions: read-out: affinity constant (KD); n = 3. Background: Surface plasmon resonance follows binding to a sensor surface in real time, without labels.
Procedure: (§2) The interactions between DPR and secondary message molecules, including c-di-GMP, c-di-AMP, and cyclic AMP (cAMP), were examined using SPR assays.
(§3) SPR data for the binding of c-di-GMP to DPR-1 or DPR-2 (A) and DPR-1^L93A/D94A/T101A/L102A or DPR-2^L91A/D92A/T99A/L100A (B). […] The values of the affinity constant (KD) were calculated by global fitting, using a steady-state affinity model. Data were representatives of three independent experiments.
(§4) The values of the affinity constant (KD) were calculated by global fitting, using a steady-state affinity model. Data were representative of three independent experiments.
(§5) To reconfirm this binding model, site mutations were introduced into DPR-2 (or DPR-1) at L91/A91, D92/A92, T99/A99, and L100/A100, resulting in a quadruple mutated protein, DPR-2^L91A/D92A/T99A/L100A (or DPR-1^L93A/D94A/T101A/L102A). […]
(§6) We covalently immobilized 50 μg/ml DPR-1 and DPR-2 in 10 mM sodium acetate buffer (pH 5.5) onto separate CM5 sensor chips (GE Healthcare), using standard primary amine coupling procedures. […] After double referencing by subtracting the signal of the reference flow cell and the curve of the buffer injection, KD values for c-di-GMP binding to the DPRs immobilized on the sensor chip surface were calculated using reference points at the end of the association phase. Values were calculated with Biacore T200 evaluation software using a 1:1 binding mode.

Data set [2] deals with DPR-2. The data set is described as above. Conditions: read-out: affinity constant (KD); n = 3.
Procedure: as §2, §3, §4, §5, §6
Data set [3] concerns DPR-1 (Cycloclasticus sp. strain P1). In words: SPR. The settings on record: biotin-DNA on streptavidin chip, DPR 0-100 nM, with or without 80 nM c-di-GMP, 25 C, 30 ul/min, 150 s association/150 s dissociation, 1:1 fit, buffer ….
Data set [4] addresses DPR-1 (Cycloclasticus sp. P1, UniProt K0C5A9). In words: SPR binding of cyclic nucleotides to DPR-1 sensor chip.
The target of data set [5] is DPR-2 (Cycloclasticus sp. P1, UniProt K0C733). The data set is described as follows: SPR binding of cyclic nucleotides to DPR-2 sensor chip. The settings on record: for Ka: DPR-2.
DPR-2 (Cycloclasticus sp. P1, UniProt K0C733), sequence (K0C733 1-238): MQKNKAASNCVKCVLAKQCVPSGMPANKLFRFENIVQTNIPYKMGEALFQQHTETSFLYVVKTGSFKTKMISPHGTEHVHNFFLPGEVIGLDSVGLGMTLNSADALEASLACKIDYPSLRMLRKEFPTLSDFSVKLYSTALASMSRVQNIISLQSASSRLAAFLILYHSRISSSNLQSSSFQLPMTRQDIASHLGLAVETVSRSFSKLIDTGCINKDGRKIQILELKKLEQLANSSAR
Data set [6] concerns the target T1, PdgC (Cycloclasticus sp. P1, UniProt K0C005). In words: SPR binding of PAHs to PdgC sensor chip. The arrangement: species or system Cycloclasticus sp. strain P1. The settings on record: wild-type PdgC; for Kd: 20°C, read-out: affinity constant (KD). The method, then: (§1) The immobilization of the PdgC PAS domain on the sensor surface was carried out as previously described ([68]). Briefly, PdgC was diluted in 10 mM sodium acetate (pH 5.5) and immobilized on a CM5 sensor chip using the amine coupling method by following the manufacturer’s protocol. SPR measurements were performed using a Biacore T200 system (GE Healthcare, Sweden).
PAH compounds were diluted in running buffer (phosphate-buffered saline [PBS] containing 5% DMSO) to a concentration of 50 μM. Running buffer alone (PBS containing 5% DMSO, without PAHs) served as the negative control. All solutions were then injected into the PdgC sensor surface for 120 s at a flow rate of 30 μl/min. Sensograms of these PAHs were recorded and analyzed. […] The association and dissociation times were both 120 s. Affinity fitting (determination of the affinity constant, KD) was performed using Biacore T200 evaluation software with a 1:1 binding mode.

The target in data set [7] is PdgC^L68A/V73A/K77G/I115G. In words: SPR binding of PAHs to four-site mutated PdgC sensor chip. The arrangement: species or system Cycloclasticus sp. strain P1. The settings on record: four-site mutation PdgC; for Kd: read-out: affinity constant (KD). The method, then:
as §1
PAH compounds were diluted in running buffer (phosphate-buffered saline [PBS] containing 5% DMSO) to a concentration of 50 μM. Running buffer alone (PBS containing 5% DMSO, without PAHs) served as the negative control. All solutions were then injected into the PdgC sensor surface for 120 s at a flow rate of 30 μl/min. Sensograms of these PAHs were recorded and analyzed. Analytes were injected through the reference and active channels at a flow rate of 30 μl/min. The association and dissociation times were both 120 s. Affinity fitting (determination of the affinity constant, KD) was performed using Biacore T200 evaluation software with a 1:1 binding mode.

Data set [8] has as its system wild-type Cycloclasticus sp. strain P1. The data set is described as follows: Intracellular c-di-GMP quantification (HPLC-MS/MS), wild type. It counts as cell-based. The settings on record: for intracellular concentration of c-di-GMP vs PAH-absent control: wild-type strain P1, after exposure to PAH, 48 h. The protocol: Intracellular c-di-GMP levels were determined using high-performance liquid chromatography tandem mass spectrometry (HPLC-MS/MS), as previously described ([66]), with the following modifications. Strain P1 cells, obtained from OD-adjusted overnight precultures, were inoculated onto various PAH substrates and grown for 48 h in triplicate. Bacterial pellets were resuspended in 0.2% ice-cold formaldehyde at a concentration of 300 mg wet weight/ml, incubated on ice for 10 min, and then centrifuged at 10,000 × g for 15 min. Each pellet was then resuspended in […] of H2O. After extracting nucleotides using ethanol extraction ([67]), samples were dried under a vacuum, reconstituted in […] of H2O via vigorous vortexing and sonication for 5 min, and finally centrifuged for 15 min at 10,000 × g. The supernatants were analyzed at 55°C using an Agilent 1200 HPLC system with a C18 ACE 3 AQ 150- by 2.1-mm column and the corresponding column guard. The mobile phase consisted of 0.1% formic acid run in an H2O-acetonitrile gradient at a flow rate of 300 μl/min, reaching 50% acetonitrile in 15 min. MS analysis was then performed via negative ion electrospray from the Agilent HPLC system into a Bruker HCT Plus ion trap in multiple reaction mode. Using SmartFrag (HyStar software), the trap was set to isolate fragment ions at m/z 688.9 (with a monitored mass range of m/z 450 to 700) from a full scan. Data Analysis v3.3 was used to interrogate the acquisitions, and the extracted ion chromatograms of m/z 538 were produced from the negative-ion MS/MS of m/z 688.9. The retention times and peak spectra were matched to the injected standard (c-di-GMP; Biolog LifeScience Institute, Bremen, Germany) at intervals throughout the run. Peak areas and relative c-di-GMP levels were normalized to the levels obtained with the injected standard. A solution of 1 mg/ml c-di-GMP standard in water was diluted to prepare the spiking solutions with 100 ng/ml, 200 ng/ml, 300 ng/ml, 400 ng/ml, 500 ng/ml, 600 ng/ml, 700 ng/ml, 800 ng/ml, and 900 ng/ml c-di-GMP standard. Extractions and quantifications were all performed in triplicate. The amount of c-di-GMP detected in the blank was subtracted from that detected in the spiked calibrants, and the analysis was calibrated using a linear regression (r^2 = 0.993). To obtain an estimate of c-di-GMP concentration per unit of cellular biomass, the c-di-GMP concentration was divided by the measured OD600 of the original culture.

Data set [9] addresses T1, PdgC. Set-up: method as in PMID 30171002. The settings on record: in the presence of PAH; cited from earlier work.
Data set [10] has as its system DPR-1. The data set is described as follows: Expression of dpr-1 in wild-type P1 (real-time PCR). Conditions: wild-type strain P1 grown on PAH, control sodium acetate. (Quantitative PCR measures a nucleic acid by following its amplification.)
Procedure: Cycloclasticus sp. strain P1 and mutant strain PARP1 were grown in 200 ml of MMC medium containing the appropriate antibiotics, with sodium acetate or PAHs as the carbon source, in 500 ml Erlenmeyer flasks at 28°C on a rotary shaker (200 rpm). Bacterial growth was monitored based on optical density (OD600). Total RNA was extracted using the RNeasy minikit (Qiagen, Valencia, CA, USA) according to the manufacturer’s protocols and subsequently treated with DNase I (Invitrogen, Carlsbad, CA, USA). The RNA yield was estimated using a NanoDrop UV spectrometer (Thermo Scientific, Wilmington, DE, USA). Approximately 4 μg of RNA was reverse transcribed using 20 ng of random primers (Invitrogen, Carlsbad, CA, USA) and PrimeScript reverse transcriptase (TaKaRa, Dalian, China). Control reactions were performed in the absence of reverse transcriptase to verify the absence of genomic DNA. To calculate the number of viable bacteria present, 16S rRNA gene copy numbers were determined using quantitative real-time PCR.
Quantitative real-time PCRs were performed using IQ SYBR green Supermix and the IQ5 multicolor real-time PCR detection system (Bio-Rad, CA, USA). The reactions were performed in 96-well optical plates sealed with optical caps. […] Fluorescence data were acquired at the end of the elongation step. […]
The samples were quantified using a calibration curve that was generated in parallel. A standard quantification curve was generated for each of the tested genes based on a serial dilution of a known amount of target DNA (from 10 to 10^6 copies) utilizing the optimal PCR conditions described above. […] Based on the calibration curve (determined using IQ^5 multicolor real-time PCR detection system software), the initial copy number of each target mRNA was calculated for each sample. The calculated values were normalized to the expression of the 16S rRNA gene to yield the number of copies of each mRNA transcript in 1,000 wild-type Cycloclasticus sp. strain P1 or mutant cells.
Data set [11] has as its target T1, PdgC. The data set is described as follows: PdgC enzymatic activity assay (Enzchek pyrophosphate assay). The settings on record: PAH 2 μM, inorganic pyrophosphate assay.
Procedure: Assays were performed using the Enzchek pyrophosphate assay kit (Invitrogen). […] In addition, the pyrophosphatase in the kit was replaced by 0.4 U/ml pyrophosphatase (Sigma). […] The accumulation of phosphate was monitored over time at OD360.
In data set [12] the test system is DPR-2 (Cycloclasticus sp. strain P1). In words: SPR. The settings on record: biotin-DNA on streptavidin chip, DPR 0-100 nM, with or without 80 nM c-di-GMP, 25 C, 30 ul/min, 150 s association/150 s dissociation, 1:1 fit, buffer ….
Data set [13] relates to DPR-2. In words: Expression of dpr-2 in wild-type P1 (real-time PCR). Conditions: wild-type strain P1 grown on PAH, control sodium acetate.
Procedure: Cycloclasticus sp. strain P1 and mutant strain PARP1 were grown in 200 ml of MMC medium containing the appropriate antibiotics, with sodium acetate or PAHs as the carbon source, in 500 ml Erlenmeyer flasks at 28°C on a rotary shaker (200 rpm). Bacterial growth was monitored based on optical density (OD600). Total RNA was extracted using the RNeasy minikit (Qiagen, Valencia, CA, USA) according to the manufacturer’s protocols and subsequently treated with DNase I (Invitrogen, Carlsbad, CA, USA). The RNA yield was estimated using a NanoDrop UV spectrometer (Thermo Scientific, Wilmington, DE, USA). […] To calculate the number of viable bacteria present, 16S rRNA gene copy numbers were determined using quantitative real-time PCR.
Quantitative real-time PCRs were performed using IQ SYBR green Supermix and the IQ5 multicolor real-time PCR detection system (Bio-Rad, CA, USA). […] Fluorescence data were acquired at the end of the elongation step. […]
The samples were quantified using a calibration curve that was generated in parallel. A standard quantification curve was generated for each of the tested genes based on a serial dilution of a known amount of target DNA (from 10 to 10^6 copies) utilizing the optimal PCR conditions described above. […]
The mark [14] stands for this setting: no c-di-GMP, value order assumed as in Fig. 7 legend.

T1 sequence (K0C005 1-445): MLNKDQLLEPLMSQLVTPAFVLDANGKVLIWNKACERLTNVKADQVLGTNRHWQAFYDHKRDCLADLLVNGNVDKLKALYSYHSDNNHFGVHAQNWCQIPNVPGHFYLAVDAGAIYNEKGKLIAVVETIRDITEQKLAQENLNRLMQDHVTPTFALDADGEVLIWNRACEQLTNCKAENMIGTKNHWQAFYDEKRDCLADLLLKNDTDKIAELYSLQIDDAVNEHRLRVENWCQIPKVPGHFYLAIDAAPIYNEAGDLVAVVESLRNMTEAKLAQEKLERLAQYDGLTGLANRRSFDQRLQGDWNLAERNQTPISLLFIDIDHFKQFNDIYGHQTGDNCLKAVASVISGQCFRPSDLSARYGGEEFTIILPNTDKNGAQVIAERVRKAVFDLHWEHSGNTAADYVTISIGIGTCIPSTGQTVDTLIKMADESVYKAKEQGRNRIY
DPR-1 (Cycloclasticus sp. P1, UniProt K0C5A9), sequence (K0C5A9 1-242): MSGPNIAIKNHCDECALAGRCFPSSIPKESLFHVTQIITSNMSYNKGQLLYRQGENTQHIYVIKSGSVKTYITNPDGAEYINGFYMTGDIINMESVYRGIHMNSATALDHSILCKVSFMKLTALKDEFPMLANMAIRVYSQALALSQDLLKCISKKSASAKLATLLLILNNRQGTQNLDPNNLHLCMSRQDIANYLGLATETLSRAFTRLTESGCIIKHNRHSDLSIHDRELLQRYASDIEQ

Turning to `Nc1ncnc2c1ncn2[C@@H]1O[C@@H]2COP(=O)(O)O[C@H]3[C@@H](O)[C@H](n4cnc5c(N)ncnc54)O[C@@H]3COP(=O)(O)O[C@H]2[C@H]1O` [c-di-AMP, cyclic dimeric AMP], the Kd on DPR-1 [1] is 4.1 µM; at DPR-2 [2] it was 2.6 µM.
PQ91_0869: the Kd came out at 0.0033 µM in data set [3] and 0.69 µM in [3] (no c-di-GMP).
In the case of `Nc1nc2c(ncn2C2OC3COP(=O)(O)OC4C(COP(=O)(O)OC3C2O)OC(n2cnc3c(=O)[nH]c(N)nc32)C4O)c(=O)[nH]1` (stereo not shown) [c-di-GMP, cyclic dimeric GMP], the values for the Ka at DPR-1 [4] (DPR-1) and at DPR-2 [5] were 3.94e5 M^-1S^-1 and 5.41e5 M^-1S^-1, respectively. Moreover, the Kd at DPR-1 [4] (DPR-1) is 1.09e-2 S^-1; at DPR-2 [5] (affinity constant (KD), DPR-2, 20°C), 0.04 µM and ~0.1 µM.
At PdgC [6], `c1cc2ccc3cccc4ccc(c1)c2c34` [pyrene] had a Ka of 4.12e5 M^-1S^-1. In addition, the Kd was 0.046 µM on PdgC [6], 100 µM in data set [7] (listed as Pyrene) and about 100 µM in data set [7]. Moreover, the “c-di-GMP production higher than that caused by naphthalene or phenanthrene” value in data set [8] (wild-type strain P1) fell in the range of 30 to 35%. The “intracellular concentration of c-di-GMP vs PAH-absent control” value in [8] is on record as 8- to 10 fold. At PdgC [9], the pdgC upregulation was 6.5- to 8.0 fold. Also, the DPR-1 expression result in the data set with DPR-1 [10] is listed as “significantly upregulated”. The “PdgC activity in vitro” value on PdgC [11] is listed as “active only in the presence of PAHs”.
On DPR-1 [4] (DPR-1), `Nc1ncnc2c1ncn2[C@@H]1O[C@@H]2COP(=O)(O)O[C@H]3[C@@H](O)[C@H](n4cnc5c(N)ncnc54)O[C@@H]3COP(=O)(O)O[C@H]2[C@H]1O` [c-di-AMP] registered a Ka of 6.58e3 M^-1S^-1 and a Kd of 2.73e-2 S^-1. The same molecule returned a Ka at DPR-2 [5] of 6.16e3 M^-1S^-1.
For PQ91_2244-2242, the Kd in data set [12] stood at 0.0064 µM; in data set [12] (setting [14]) it was 0.63 µM.
As to PQ91_0870-0877, the Kd in [3] was 0.00062 µM; in data set [3] (no c-di-GMP, text prints 0.73 x 10^6 M, exponent sign evidently lost), 0.73 µM.
For `c1ccc2ccccc2c1` [naphthalene], the results for the Ka (on PdgC [6]; in [7]) were 5.51e5 M^-1S^-1 and 7.6e2 M-1S-1, respectively. The figures for the Kd in data set [7] (listed as Naphthalene) and in data set [7] were 78 µM and about 100 µM, respectively. Moreover, in data set [8], the “intracellular concentration of c-di-GMP vs PAH-absent control” value was 8- to 10 fold. Moreover, the pdgC upregulation on PdgC [9] is given as 6.5- to 8.0 fold. Besides, the DPR-1 expression entry with DPR-1 [10] is “slightly upregulated”. Besides, in the data set on DPR-2 [13], the DPR-2 expression result is recorded as “slightly upregulated”.
As to `Nc1ncnc2c1ncn2[C@@H]1O[C@@H]2COP(=O)(O)O[C@H]2[C@H]1O` [cAMP, cyclic AMP], the Ka at DPR-1 [4] (DPR-1) stood at 4.15e3 M^-1S^-1; at DPR-2 [5], 5.33e3 M^-1S^-1. Further, the Kd turned out to be 1.35e-2 S^-1 on DPR-1 [4] (DPR-1); 3.3 µM on DPR-1 [4] (read-out: affinity constant (KD), DPR-1, 20°C); 3.5 µM on DPR-2 [5] (read-out: affinity constant (KD), DPR-2, 20°C).
For PQ91_2227-2224, the Kd in data set [12] was 0.00071 µM; in data set [12] (setting [14]) it was 0.62 µM.
In the same order, the values of PQ91_2220-2218 are 0.00059 µM and 0.78 µM.
For `c1ccc2c(c1)ccc1ccccc12` [phenanthrene], the Kd at PdgC [6] was 0.046 µM; in [7] (listed as Phenanthrene) it was 43 µM; in data set [7], about 100 µM. For the same molecule, the “intracellular concentration of c-di-GMP vs PAH-absent control” value in [8] is 8- to 10 fold. Besides, on PdgC [9], the pdgC upregulation is listed as 6.5- to 8.0 fold. In the data set on DPR-1 [10], the DPR-1 expression result is on record as “slightly upregulated”. In addition, the DPR-2 expression entry in the data set on DPR-2 [13] is listed as “slightly upregulated”. At PdgC [11], the “PdgC activity in vitro” value is listed as “active only in the presence of PAHs”.
